In ChEMBL document CHEMBL5316381, “Discovery of [1,2,3]Triazolo[4,5-c]quinoline Derivatives as a New Class of Ataxia-Telangiectasia Mutated Kinase Inhibitors” (ACS Med Chem Lett, 2023):
Active and inactive are the calls of the source. No cut-off for these calls is given here.

Assays:
[1] = target: Serine-protein kinase ATM (Homo sapiens, UniProt Q13315); experiment: Inhibition of ATM phosphorylation in human SW620 cells with IR-induced DNA damage in the presence of 3 Gy irradiation by Western blot analysis; type: cell-based; conditions: dose 3-250 nM
Serine-protein kinase ATM, sequence (Q13315 whole entry): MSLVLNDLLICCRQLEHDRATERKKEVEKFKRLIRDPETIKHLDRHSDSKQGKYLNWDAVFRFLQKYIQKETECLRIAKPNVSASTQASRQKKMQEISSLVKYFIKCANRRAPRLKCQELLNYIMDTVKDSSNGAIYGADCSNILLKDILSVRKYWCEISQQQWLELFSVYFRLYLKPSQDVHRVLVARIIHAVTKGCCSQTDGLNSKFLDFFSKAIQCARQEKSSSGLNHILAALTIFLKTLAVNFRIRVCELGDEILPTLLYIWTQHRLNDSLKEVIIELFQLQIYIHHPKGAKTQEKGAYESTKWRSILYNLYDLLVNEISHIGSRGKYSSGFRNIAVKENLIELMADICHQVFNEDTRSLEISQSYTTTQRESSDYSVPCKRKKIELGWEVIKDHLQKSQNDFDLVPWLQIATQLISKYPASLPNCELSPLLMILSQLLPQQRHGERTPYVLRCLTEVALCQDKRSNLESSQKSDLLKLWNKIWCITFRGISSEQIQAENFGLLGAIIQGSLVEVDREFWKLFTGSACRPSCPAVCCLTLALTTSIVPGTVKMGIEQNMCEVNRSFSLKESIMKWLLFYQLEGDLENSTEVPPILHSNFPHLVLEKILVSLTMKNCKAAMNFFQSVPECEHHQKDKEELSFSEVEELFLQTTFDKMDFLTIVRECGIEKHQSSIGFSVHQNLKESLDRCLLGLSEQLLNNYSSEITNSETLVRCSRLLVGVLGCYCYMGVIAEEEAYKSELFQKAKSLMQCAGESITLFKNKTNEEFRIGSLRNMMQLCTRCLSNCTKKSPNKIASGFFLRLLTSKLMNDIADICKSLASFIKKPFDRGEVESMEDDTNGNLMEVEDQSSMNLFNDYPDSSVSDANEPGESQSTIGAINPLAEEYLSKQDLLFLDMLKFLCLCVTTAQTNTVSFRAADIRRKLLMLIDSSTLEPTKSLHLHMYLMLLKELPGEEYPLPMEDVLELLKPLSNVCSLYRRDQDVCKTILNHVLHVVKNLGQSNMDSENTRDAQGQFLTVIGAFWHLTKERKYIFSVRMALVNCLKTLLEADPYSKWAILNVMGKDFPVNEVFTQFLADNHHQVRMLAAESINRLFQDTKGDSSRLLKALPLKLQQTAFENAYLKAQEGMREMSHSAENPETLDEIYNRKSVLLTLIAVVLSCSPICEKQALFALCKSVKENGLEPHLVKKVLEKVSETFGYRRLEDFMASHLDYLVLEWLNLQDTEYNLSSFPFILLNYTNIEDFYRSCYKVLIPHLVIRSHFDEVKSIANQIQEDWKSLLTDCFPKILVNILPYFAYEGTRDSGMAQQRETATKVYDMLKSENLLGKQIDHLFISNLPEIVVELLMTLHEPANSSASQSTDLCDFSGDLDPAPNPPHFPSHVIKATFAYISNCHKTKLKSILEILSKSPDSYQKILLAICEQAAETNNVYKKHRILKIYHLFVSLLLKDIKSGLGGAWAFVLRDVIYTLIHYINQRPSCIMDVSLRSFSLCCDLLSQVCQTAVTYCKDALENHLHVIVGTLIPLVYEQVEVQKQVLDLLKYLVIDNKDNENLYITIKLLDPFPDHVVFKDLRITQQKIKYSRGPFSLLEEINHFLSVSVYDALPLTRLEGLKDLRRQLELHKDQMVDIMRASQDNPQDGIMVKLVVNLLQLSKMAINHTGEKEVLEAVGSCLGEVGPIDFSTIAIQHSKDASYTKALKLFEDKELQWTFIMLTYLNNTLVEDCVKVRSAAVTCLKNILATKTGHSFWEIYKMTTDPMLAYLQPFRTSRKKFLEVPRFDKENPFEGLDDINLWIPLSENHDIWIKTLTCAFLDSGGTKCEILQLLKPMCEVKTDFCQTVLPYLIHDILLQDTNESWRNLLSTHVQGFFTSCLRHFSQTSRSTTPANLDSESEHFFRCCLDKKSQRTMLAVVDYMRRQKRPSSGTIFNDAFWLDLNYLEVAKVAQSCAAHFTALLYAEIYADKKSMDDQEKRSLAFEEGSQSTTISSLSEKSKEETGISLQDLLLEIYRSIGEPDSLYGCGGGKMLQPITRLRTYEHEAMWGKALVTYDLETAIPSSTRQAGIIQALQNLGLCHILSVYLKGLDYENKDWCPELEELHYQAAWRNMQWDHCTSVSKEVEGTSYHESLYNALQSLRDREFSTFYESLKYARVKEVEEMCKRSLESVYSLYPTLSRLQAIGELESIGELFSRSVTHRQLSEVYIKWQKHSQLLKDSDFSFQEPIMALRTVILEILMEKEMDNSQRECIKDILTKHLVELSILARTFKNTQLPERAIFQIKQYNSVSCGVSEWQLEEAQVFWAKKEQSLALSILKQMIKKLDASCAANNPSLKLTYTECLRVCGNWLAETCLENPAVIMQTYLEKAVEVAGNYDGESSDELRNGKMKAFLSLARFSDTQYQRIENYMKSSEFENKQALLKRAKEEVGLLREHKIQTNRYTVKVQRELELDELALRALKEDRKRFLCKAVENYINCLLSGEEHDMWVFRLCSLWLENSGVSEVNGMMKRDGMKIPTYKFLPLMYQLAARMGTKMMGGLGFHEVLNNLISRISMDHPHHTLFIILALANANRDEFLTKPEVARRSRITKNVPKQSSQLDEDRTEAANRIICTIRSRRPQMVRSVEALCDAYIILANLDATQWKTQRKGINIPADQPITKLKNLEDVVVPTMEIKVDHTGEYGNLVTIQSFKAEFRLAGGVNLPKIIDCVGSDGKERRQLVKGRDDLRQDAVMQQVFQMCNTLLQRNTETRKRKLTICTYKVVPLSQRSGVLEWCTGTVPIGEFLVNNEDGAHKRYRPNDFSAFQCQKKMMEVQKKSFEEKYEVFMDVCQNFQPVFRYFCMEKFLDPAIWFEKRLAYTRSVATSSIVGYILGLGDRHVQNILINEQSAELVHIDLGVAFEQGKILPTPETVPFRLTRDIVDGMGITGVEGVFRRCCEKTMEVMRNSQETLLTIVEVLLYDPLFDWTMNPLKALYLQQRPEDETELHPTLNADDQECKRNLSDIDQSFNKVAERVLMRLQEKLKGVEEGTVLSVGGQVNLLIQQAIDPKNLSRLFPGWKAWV

SW-620 [2] = experiment: Induction of apoptosis in human SW620 cells assessed as viable cells at 30 nM measured after 72 hrs in presence of CPT-11 by Annexin V-FITC staining based flow cytometric analysis (reference value: 87.36%); type: functional; conditions: read-out: Activity
[3] = Toxicity in BALB/c mouse xenografted with human SW620 cells assessed as heart damage at 5 mg/kg, ip administered once daily and measured after 23 days by H&E staining based microscopic analysis; type: organism-based, SW-620; conditions: in vivo, 552 h, time 23 day
[4] = Toxicity in BALB/c mouse xenografted with human SW620 cells assessed as kidney damage at 5 mg/kg, ip administered once daily and measured after 23 days by H&E staining based microscopic analysis; type: organism-based, SW-620; conditions: in vivo, 552 h, time 23 day
SW-620 [5] = experiment: Antiproliferative activity against human SW620 cells assessed as reduction in colony formation at 9 nM measured after 14 days by crystal violet staining based microscopic analysis; type: functional, cell-based; conditions: time 14.0 day
HCT-116 [6] = experiment: Induction of apoptosis in human HCT-116 cells assessed as necrotic cells at 1 uM measured after 72 hrs by Annexin V-FITC staining based flow cytometric analysis (reference value: 2.41%); type: functional
HCT-116 [7] = experiment: Cell cycle arrest in human HCT-116 cells assessed as accumulation of cells at G2/M phase incubated for 24 hrs in presence of CPT-11 by PI staining based flow cytometric analysis; type: functional; conditions: dose 10-100 nM
SW-620 [8] = experiment: Cell cycle arrest in human SW620 cells assessed as accumulation of cells at G2/M phase incubated for 24 hrs in presence of CPT-11 by PI staining based flow cytometric analysis; type: functional; conditions: dose 10-100 nM
SW-620 [9] = experiment: Induction of apoptosis in human SW620 cells assessed as necrotic cells at 10 nM measured after 72 hrs in presence of CPT-11 by Annexin V-FITC staining based flow cytometric analysis (reference value: 5.83%); type: functional
HCT-116 [10] = experiment: Induction of apoptosis in human HCT-116 cells assessed as late apoptotic cells at 1 uM measured after 72 hrs by Annexin V-FITC staining based flow cytometric analysis (reference value: 19.80%); type: functional
SW-620 [11] = experiment: In vivo inhibition of ATM in BALB/c mouse model xenografted with human SW620 cells assessed as inhibition of Chk2 phosphorylation at 5 mg/kg, ip administered once daily and measured after 23 days in the presence of CPT-11 by Western blot analysis; type: functional, organism-based; conditions: time 23.0 day
[12] = target: Phosphatidylinositol 4,5-bisphosphate 3-kinase catalytic subunit gamma isoform (Homo sapiens, UniProt P48736); experiment: Inhibition of human PI3K p120 gamma using phosphatidylinositol-4, 5-bisphosphate as substrate incubated for 30 mins in the presence of Mg/ATP mix by HTRF-based analysis
Phosphatidylinositol 4,5-bisphosphate 3-kinase catalytic subunit gamma isoform, sequence (P48736 whole entry, canonical isoform): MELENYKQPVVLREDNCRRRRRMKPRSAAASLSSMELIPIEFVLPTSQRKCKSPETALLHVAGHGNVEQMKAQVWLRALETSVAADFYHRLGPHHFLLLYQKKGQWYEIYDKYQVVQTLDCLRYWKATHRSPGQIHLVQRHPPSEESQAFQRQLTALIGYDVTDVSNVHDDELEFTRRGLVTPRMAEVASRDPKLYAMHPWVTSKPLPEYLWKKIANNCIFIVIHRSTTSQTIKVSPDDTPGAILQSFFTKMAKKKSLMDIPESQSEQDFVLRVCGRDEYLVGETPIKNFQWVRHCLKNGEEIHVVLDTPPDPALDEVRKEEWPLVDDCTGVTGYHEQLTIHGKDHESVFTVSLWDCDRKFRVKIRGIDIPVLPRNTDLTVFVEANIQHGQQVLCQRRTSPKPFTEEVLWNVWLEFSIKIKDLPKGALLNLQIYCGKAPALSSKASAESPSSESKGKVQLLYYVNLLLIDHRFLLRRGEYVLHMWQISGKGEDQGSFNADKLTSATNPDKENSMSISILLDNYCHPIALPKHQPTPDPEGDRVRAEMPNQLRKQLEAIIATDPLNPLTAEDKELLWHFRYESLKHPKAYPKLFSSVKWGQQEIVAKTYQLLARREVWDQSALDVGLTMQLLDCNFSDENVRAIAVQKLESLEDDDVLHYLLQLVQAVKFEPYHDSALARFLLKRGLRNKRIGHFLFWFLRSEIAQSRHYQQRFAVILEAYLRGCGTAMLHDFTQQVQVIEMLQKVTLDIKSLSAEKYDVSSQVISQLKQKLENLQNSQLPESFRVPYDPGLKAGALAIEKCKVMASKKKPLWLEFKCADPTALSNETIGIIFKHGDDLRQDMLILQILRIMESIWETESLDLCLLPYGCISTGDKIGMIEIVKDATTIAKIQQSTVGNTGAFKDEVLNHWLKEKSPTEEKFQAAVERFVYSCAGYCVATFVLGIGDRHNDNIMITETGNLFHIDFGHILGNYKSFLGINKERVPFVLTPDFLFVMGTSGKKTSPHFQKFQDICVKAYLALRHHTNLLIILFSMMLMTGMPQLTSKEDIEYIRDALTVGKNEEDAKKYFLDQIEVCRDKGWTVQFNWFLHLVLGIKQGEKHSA

SW-620 [13] = experiment: Radiosensitizing activity against human SW620 cells assessed as reduction in colony formation at 9 nM incubated after 14 days in the presence of 1.5 Gy irradiation by crystal violet staining based analysis; type: functional, cell-based; conditions: time 14.0 day
[14] = Toxicity in BALB/c mouse xenografted with human SW620 cells assessed as liver damage at 5 mg/kg, ip administered once daily and measured after 23 days by H&E staining based microscopic analysis; type: organism-based, SW-620; conditions: in vivo, 552 h, time 23 day
SW-620 [15] = experiment: Induction of apoptosis in human SW620 cells assessed as early apoptotic cells at 10 nM measured after 72 hrs in presence of CPT-11 by Annexin V-FITC staining based flow cytometric analysis (reference value: 1.06%); type: functional
SW-620 [16] = experiment: Induction of apoptosis in human SW620 cells assessed as late apoptotic cells at 100 nM measured after 72 hrs by Annexin V-FITC staining based flow cytometric analysis (reference value: 5.75%); type: functional
SW-620 [17] = experiment: Induction of apoptosis in human SW620 cells assessed as early apoptotic cells at 30 nM measured after 72 hrs in presence of CPT-11 by Annexin V-FITC staining based flow cytometric analysis (reference value: 1.06%); type: functional
[18] = target: Serine/threonine-protein kinase Chk2 (Homo sapiens) (UniProt O96017); experiment: Inhibition of Chk2 phosphorylation in human SW620 cells with IR-induced DNA damage in the presence of 1.5 Gy irradiation by Western blot analysis; type: cell-based; conditions: dose 3-250 nM
Serine/threonine-protein kinase Chk2 (Homo sapiens), sequence (O96017 whole entry): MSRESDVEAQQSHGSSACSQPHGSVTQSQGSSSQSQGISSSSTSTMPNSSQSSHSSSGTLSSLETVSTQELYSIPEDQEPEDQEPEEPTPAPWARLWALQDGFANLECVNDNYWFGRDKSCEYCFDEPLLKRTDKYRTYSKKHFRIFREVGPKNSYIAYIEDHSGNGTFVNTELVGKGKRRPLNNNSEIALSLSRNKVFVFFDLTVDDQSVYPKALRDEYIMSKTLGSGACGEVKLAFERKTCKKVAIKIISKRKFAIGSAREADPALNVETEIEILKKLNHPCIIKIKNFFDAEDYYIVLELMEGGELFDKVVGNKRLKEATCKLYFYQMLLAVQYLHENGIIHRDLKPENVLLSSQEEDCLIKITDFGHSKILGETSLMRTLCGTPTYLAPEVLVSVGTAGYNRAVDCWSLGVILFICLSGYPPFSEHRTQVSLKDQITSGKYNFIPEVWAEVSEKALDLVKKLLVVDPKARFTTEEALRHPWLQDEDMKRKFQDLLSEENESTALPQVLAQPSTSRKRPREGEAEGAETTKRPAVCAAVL

SW-620 [19] = experiment: Antitumor activity against human SW620 cells xenografted in BALB/C mouse assessed as reduction in tumor volume at 5 mg/kg, ip administered once a week and measured after 23 days in the presence of CPT-11; type: functional, organism-based; conditions: time 23.0 day
SW-620 [20] = experiment: In vivo inhibition of ATM in BALB/c mouse model xenografted with human SW620 cells assessed as inhibition of ATM phosphorylation at 5 mg/kg, ip administered once daily and measured after 23 days in the presence of CPT-11 by Western blot analysis; type: functional, organism-based; conditions: time 23.0 day
HCT-116 [21] = experiment: Induction of apoptosis in human HCT-116 cells assessed as late apoptotic cells at 100 nM measured after 72 hrs by Annexin V-FITC staining based flow cytometric analysis (reference value: 19.80%); type: functional
SW-620 [22] = experiment: Induction of apoptosis in human SW620 cells assessed as viable cells at 100 nM measured after 72 hrs in presence of CPT-11 by Annexin V-FITC staining based flow cytometric analysis (reference value: 87.36%); type: functional; conditions: read-out: Activity
[23] = target: Serine/threonine-protein kinase Chk2 (Homo sapiens) (UniProt O96017); experiment: Inhibition of Chk2 phosphorylation in human SW620 cells with IR-induced DNA damage in the presence of 3 Gy irradiation by Western blot analysis; type: cell-based; conditions: dose 3-250 nM
SW-620 [24] = experiment: Induction of apoptosis in human SW620 cells assessed as necrotic cells at 30 nM measured after 72 hrs in presence of CPT-11 by Annexin V-FITC staining based flow cytometric analysis (reference value: 5.83%); type: functional
[25] = target: PI3-kinase p110-delta/p85-alpha (Homo sapiens, UniProt O00329); experiment: Inhibition of human PI3K p110 delta/p85 alpha using phosphatidylinositol-4, 5-bisphosphate as substrate incubated for 30 mins in the presence of Mg/ATP mix by HTRF-based analysis; type: protein-complex assay
HCT-116 [26] = experiment: Induction of apoptosis in human HCT-116 cells assessed as late apoptotic cells at 30 nM measured after 72 hrs in presence of CPT-11 by Annexin V-FITC staining based flow cytometric analysis (reference value: 19.80%); type: functional
HCT-116 [27] = experiment: Induction of apoptosis in human HCT-116 cells assessed as early apoptotic cells at 100 nM measured after 72 hrs in presence of CPT-11 by Annexin V-FITC staining based flow cytometric analysis (reference value: 4.06%); type: functional
SW-620 [28] = experiment: Antiproliferative activity against human SW620 cells assessed as reduction in colony formation at 27 nM measured after 14 days by crystal violet staining based microscopic analysis; type: functional, cell-based; conditions: time 14.0 day
HCT-116 [29] = experiment: Induction of apoptosis in human HCT-116 cells assessed as necrotic cells at 10 nM measured after 72 hrs in presence of CPT-11 by Annexin V-FITC staining based flow cytometric analysis (reference value: 2.41%); type: functional
HCT-116 [30] = experiment: Induction of apoptosis in human HCT-116 cells assessed as viable cells at 100 nM measured after 72 hrs by Annexin V-FITC staining based flow cytometric analysis (reference value: 73.74%); type: functional; conditions: read-out: Activity

With C[C@H](c1ccccc1)n1nnc2cnc3ccc(-c4ccc(OCCCN(C)C)nc4)cc3c21 the inhibition [1] was “Dose-Dependent Effect”, the viability at 0.03 µM (SW-620 [2]) was 47.2% and the Activity [3] was “Non-Toxic”. The Activity [4] was “Non-Toxic”, the Activity (SW-620 [5]) was “inactive” and the Activity (HCT-116 [6]) was 5.57%. For the same compound, the Activity (HCT-116 [7]) was “Dose-Dependent Effect”, the Activity (SW-620 [8]) was “Dose-Dependent Effect” and the Activity (SW-620 [9]) was 5.94%. The Activity (HCT-116 [10]) was 31.02%, the inhibition (SW-620 [11]) was “Active” and the IC50 [12] was over 10000 nM. For the same compound, the Activity (SW-620 [13]) was “Active”, the Activity [14] was “Non-Toxic” and the Activity (SW-620 [15]) was 2.76%. For the same compound, the Activity (SW-620 [16]) was 11.57%, the Activity (SW-620 [17]) was 6.95% and the inhibition [18] was “Dose-Dependent Effect”. The Activity (SW-620 [19]) was “Active”, the inhibition (SW-620 [20]) was “Active” and the Activity (HCT-116 [21]) was 14.21%. The viability at 0.1 µM (SW-620 [22]) was 30.5%, the inhibition [23] was “Dose-Dependent Effect” and the Activity (SW-620 [24]) was 1.83%. The IC50 [25] was 1030 nM, the Activity (HCT-116 [26]) was 63.63% and the Activity (HCT-116 [27]) was 2.77%. The Activity (SW-620 [28]) was “inactive”, the Activity (HCT-116 [29]) was 8.88% and the viability at 0.1 µM (HCT-116 [30]) was 75.3%.
